PMC6026185 (Scientific Reports, 2018)
“Also recorded” adds a separate entry of the source. Read-outs that look alike come from different tables or passages of the source.

What was measured:
[1] = in words, cited from earlier work
[2] = parameters: method as in ref [30] = [30]; 30. Reilly, R. F. & Jackson, E. K. Goodman & Gilman’s. The Pharmacological Basis of Therapeutics . 12th ed. Brunton, L. L., Chabner, B. A. & Knollmann, B. C. (eds), pp. 671–719 (McGraw-Hill, New York); conditions: ref [30]; cited from earlier work
[3] = target: T1, hNKCC1B (Homo sapiens, UniProt P55011); experiment: 86Rb+ uptake in hNKCC1B-expressing Xenopus laevis oocytes; type: cell-based; conditions: 5 min, corrected for uninjected oocytes, median and range of 3–7 experiments
T1 construct: expressed in transfected cells; host or cells: Xenopus laevis oocytes injected with cRNA (pXOOM vector)
T1 sequence (P55011 1-1196 isoform P55011-3): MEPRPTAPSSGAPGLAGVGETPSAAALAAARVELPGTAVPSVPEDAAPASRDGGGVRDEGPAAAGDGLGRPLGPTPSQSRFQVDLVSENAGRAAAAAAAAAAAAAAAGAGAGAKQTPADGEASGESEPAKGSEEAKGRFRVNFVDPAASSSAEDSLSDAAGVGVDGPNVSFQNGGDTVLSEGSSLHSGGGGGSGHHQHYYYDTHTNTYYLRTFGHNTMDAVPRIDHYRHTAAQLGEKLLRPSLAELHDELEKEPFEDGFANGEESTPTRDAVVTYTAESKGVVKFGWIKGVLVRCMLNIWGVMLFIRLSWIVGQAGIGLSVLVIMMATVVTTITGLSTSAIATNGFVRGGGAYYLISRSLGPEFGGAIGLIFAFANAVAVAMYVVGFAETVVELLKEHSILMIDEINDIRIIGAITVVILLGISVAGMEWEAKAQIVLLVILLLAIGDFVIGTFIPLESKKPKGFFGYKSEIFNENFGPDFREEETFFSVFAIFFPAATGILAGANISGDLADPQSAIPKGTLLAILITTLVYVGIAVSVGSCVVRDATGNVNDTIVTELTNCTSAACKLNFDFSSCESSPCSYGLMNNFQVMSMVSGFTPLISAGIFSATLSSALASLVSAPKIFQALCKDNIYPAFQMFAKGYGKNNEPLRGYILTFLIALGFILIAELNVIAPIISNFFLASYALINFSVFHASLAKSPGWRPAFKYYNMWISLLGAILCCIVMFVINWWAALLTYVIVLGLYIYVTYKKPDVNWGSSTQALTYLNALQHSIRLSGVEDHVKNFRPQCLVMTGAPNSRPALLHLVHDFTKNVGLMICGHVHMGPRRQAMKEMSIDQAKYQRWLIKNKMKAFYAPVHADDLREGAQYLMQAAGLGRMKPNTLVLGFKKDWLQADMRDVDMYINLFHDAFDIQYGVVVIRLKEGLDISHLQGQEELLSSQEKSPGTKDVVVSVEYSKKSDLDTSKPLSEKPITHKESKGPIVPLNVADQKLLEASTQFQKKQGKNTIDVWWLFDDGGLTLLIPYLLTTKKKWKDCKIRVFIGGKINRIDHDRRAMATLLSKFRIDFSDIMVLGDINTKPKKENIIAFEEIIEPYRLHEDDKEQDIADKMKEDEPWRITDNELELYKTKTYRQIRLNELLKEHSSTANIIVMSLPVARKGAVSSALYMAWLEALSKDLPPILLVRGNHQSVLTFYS

[4] = parameters: method as in DrugBank database; conditions: ref DrugBank database; cited from earlier work
[5] = rats, cited from earlier work
[6] = target: T2, hNKCC1A (Homo sapiens, UniProt P55011); experiment: 86Rb+ uptake in hNKCC1A-expressing Xenopus laevis oocytes; type: cell-based; conditions: for IC50 / IC50 for hNKCC1A, IC50 (µM) (range): 86Rb+ uptake, Xenopus oocytes, 5 min, corrected for uninjected oocytes, median and range of 3–7 experiments; for Ratio hNKCC1A/ hNKCC1B: ratio of IC50s
T2 construct: Full-length NKCC1 (NKCC1A) comprises ~1200 amino acids; expressed in transfected cells; host or cells: Xenopus laevis oocytes injected with cRNA (pXOOM vector)
T2 sequence (P55011 1-1212): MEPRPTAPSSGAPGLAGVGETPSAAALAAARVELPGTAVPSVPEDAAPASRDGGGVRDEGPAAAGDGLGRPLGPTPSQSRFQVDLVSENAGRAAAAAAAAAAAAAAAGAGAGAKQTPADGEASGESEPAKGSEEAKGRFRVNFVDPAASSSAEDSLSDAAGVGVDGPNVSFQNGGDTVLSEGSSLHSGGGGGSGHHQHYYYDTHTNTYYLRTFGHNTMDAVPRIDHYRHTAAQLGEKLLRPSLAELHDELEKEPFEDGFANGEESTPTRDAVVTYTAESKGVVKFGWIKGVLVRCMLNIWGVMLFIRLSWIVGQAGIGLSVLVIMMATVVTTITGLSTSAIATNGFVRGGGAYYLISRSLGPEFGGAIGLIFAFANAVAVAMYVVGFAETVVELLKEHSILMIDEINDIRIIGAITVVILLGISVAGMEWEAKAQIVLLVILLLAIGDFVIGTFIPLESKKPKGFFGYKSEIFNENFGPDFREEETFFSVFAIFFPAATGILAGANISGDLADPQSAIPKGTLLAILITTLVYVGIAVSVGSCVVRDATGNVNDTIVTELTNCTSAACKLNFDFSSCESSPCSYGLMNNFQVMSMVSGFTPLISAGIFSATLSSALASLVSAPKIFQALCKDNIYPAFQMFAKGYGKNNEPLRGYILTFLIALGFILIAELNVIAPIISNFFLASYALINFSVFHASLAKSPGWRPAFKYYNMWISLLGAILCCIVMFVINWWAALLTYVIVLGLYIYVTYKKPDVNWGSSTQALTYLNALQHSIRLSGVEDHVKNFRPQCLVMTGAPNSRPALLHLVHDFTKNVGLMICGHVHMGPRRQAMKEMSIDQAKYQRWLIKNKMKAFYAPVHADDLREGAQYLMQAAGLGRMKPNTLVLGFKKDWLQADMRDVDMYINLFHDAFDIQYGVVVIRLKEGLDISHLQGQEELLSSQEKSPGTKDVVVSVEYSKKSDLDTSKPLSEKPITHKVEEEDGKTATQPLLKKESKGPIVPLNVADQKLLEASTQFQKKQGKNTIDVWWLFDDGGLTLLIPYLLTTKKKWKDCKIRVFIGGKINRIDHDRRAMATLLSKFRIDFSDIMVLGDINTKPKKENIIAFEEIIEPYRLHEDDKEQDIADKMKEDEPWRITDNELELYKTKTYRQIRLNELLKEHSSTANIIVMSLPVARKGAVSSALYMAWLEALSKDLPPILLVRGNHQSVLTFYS

[7] = tested on: NKCC2; parameters: method as in Greven[53]; conditions: Rat kidney TAL; ref Greven[53]; cited from earlier work
[8] = parameters: method as in DrugBank database; conditions: ref DrugBank database; cited from earlier work; remark: listed apart in the source
[9] = tested on: NKCC1; conditions: Activated state, isoforms not differentiated, turkey erythrocytes, chick cardiac cells, winter flounder intestine, ref Palfrey et al.[48], Frelin et al.[49], O’Grady et al.[50], cited from earlier work
[10] = tested on: NKCC2; parameters: method as in Schlatter et al.[23]; conditions: Rabbit kidney TAL; ref Schlatter et al.[23]; cited from earlier work
[11] = tested on: NKCC2; parameters: method as in ref Palfrey et al.[48]; Schlatter et al.[23]; Frelin et al.[49]; O’Grady et al.[50]; Glanville et al.[51]; Hannaert et al.[52]; conditions: Rabbit kidney TAL; rat kidney TAL; NKCC2 isoforms not differentiated; ref Palfrey et al.[48]; Schlatter et al.[23]; Frelin et al.[49]; O’Grady et al.[50]; Glanville et al.[51]; Hannaert et al.[52]; cited from earlier work
[12] = tested on: hNKCC2 isoform A; conditions: Xenopus oocytes; ref Gillen et al.[55]; Carota et al.[56]; read-out: IC50 (µM) NKCC2 (hA); cited from earlier work
[13] = tested on: hNKCC2 isoform B; conditions: Xenopus oocytes; ref Gillen et al.[55]; Carota et al.[56]; read-out: IC50 (µM) NKCC2 (hB); cited from earlier work
[14] = tested on: NKCC2; parameters: method as in Wittner et al.[54]; conditions: Mouse and rabbit kidney TAL; ref Wittner et al.[54]; cited from earlier work
[15] = mIMCD-K2 cells, rat erythrocytes and thymocytes, Schlatter et al.[23], Glanville et al.[51], Hannaert et al.[52]

In the case of NS(=O)(=O)c1cc(-c2nnn[nH]2)c(NCc2cccs2)cc1Cl [Azosemide], the plasma protein binding ([1]; ref [31]) is listed as “highly bound to plasma proteins”, the “clinical diuretic potency relative to furosemide” value [2] is listed as “about the same diuretic potency as furosemide” and the IC50 [3] is listed as 0.197 µM. For the same molecule, the “Lipophilicity (logP)” value [4] was 2.38, the brain levels ([5]; 30 min following i.v. 20 mg/kg, below detection limit, ref [32]) was less than 0.05 µg/g and the IC50 [6] was 0.246 µM. For the same molecule, the “Ratio hNKCC1A/ hNKCC1B” value [6] was 1.25, the IC50 [7] was 3 µM and the pKa [8] was 7.38.
For NS(=O)(=O)c1cc(C(=O)O)cc(NCc2ccccc2)c1Oc1ccccc1 [Benzmetanide], the IC50 [9] is listed as 0.05 to 0.3 µM.
For C=C(CC)C(=O)c1ccc(OCC(=O)O)c(Cl)c1Cl [Ethacrynic acid], the IC50 [3] is given as 3070 µM, the IC50 [10] is given as 5.1 µM and the IC50 [6] is given as 1680 µM.
For CCOC(=O)/C=C1\SC(N2CCCCC2)C(=O)N1C (stereo not drawn) [Etozolin], the IC50 [10] is given as greater than 100 µM.
For NS(=O)(=O)c1cc(C(=O)O)c(NCc2ccco2)cc1Cl [Furosemide], the IC50 [9, 15] is listed as 7 to 23 µM, the IC50 [11] is listed as 3 to 7.1 µM and the IC50 [12] is listed as 15.1 µM. For the same molecule, the IC50 [13] was 7.2 µM.
For COc1ccc(Cl)cc1C(=O)NCCc1ccc(S(=O)(=O)NC(=O)NC2CCCCC2)cc1 [Glybenclamide, 5-chloro-N-(2-{4-[(cyclohexylcarbamoyl)sulfamoyl]phenyl}ethyl)-2-methoxybenzamide], the IC50 [3] was greater than 100 µM, the “IC50 for hNKCC1B, IC50 (µM) (range)” value ([3]; listed as glibenclamide) was “did not inhibit; also recorded: inactive” and the IC50 [6] was greater than 100 µM. For the same molecule, the “IC50 for hNKCC1A, IC50 (µM) (range)” value ([6]; listed as glibenclamide) was “did not inhibit; also recorded: inactive”.
For CC1(c2ccccc2)Cc2cc(OCC(=O)O)c(Cl)c(Cl)c2C1=O (stereo not drawn) [Indacrinone], the IC50 [10] is given as 12 µM.
For CC(c1ccc(Cl)c(Cl)c1)N1N=C(N)CC1=O (stereo not drawn) [Muzolimine], the IC50 [10] is given as greater than 100 µM.
In the case of CN1C(=O)C(N2CCCCC2)S/C1=C/C(=O)O (stereo not drawn) [Ozolinon], the IC50 [10] is given as 11 µM.
In the case of NS(=O)(=O)c1cc(C(=O)O)cc(N2CCCC2)c1Oc1ccccc1 [Piretanide], the IC50 [3] is given as 1.66 µM, the IC50 [9, 15] is given as 0.5 to 3 µM and the IC50 [11] is given as 1 to 1.1 µM. The IC50 [6] was 3.35 µM and the “Ratio hNKCC1A/ hNKCC1B” value [6] was 2.02.
In the case of O=C(O)COc1ccc(C(=O)c2cccs2)c(Cl)c1Cl [Ticrynafen], the IC50 [3] is listed as 1780 µM, the IC50 [10] is listed as 410 µM and the IC50 [6] is listed as 489 µM. For the same molecule, the “Ratio hNKCC1A/ hNKCC1B” value [6] was 0.275.
For CN=C1SCC(O)(c2ccc(Cl)c(S(N)(=O)=O)c2)N1C (stereo not drawn) [Tizolemide], the IC50 [10] is listed as greater than 100 µM.
For Cc1cccc(Nc2ccncc2S(=O)(=O)NC(=O)NC(C)C)c1 [Torasemide], the IC50 [14] is given as 0.3 µM, the plasma protein binding ([1]; ref [33]) is given as “highly bound to plasma proteins” and the “clinical diuretic potency relative to furosemide” value [2] is given as “about 3 times”. For the same molecule, the IC50 [3] was 8.19 µM, the “brain:plasma concentration ratio” value ([5]; 30 min after i.v. 10 mg/kg, ref [34]) was 0.00024 and the IC50 [6] was 6.18 µM. For the same molecule, the “Ratio hNKCC1A/ hNKCC1B” value [6] was 0.755.
Molecule NS(=O)(=O)c1cc(C(=O)NN2CC3C4CCC(C4)C3C2)ccc1Cl (stereo not drawn) [Tripamide] has an IC50 [3] greater than 1000 µM and an IC50 [6] greater than 1000 µM.
With Cc1cccc(C)c1NC(=O)c1cc(S(N)(=O)=O)c(Cl)cc1O [Xipamide, 4-chloro-5-sulfamoyl-2′,6′-salicyloxylidide] the IC50 [3] was greater than 1750 µM, the “IC50 for hNKCC1B, IC50 (µM) (range)” value [3] was “did not inhibit; also recorded: inactive” and the IC50 [6] was greater than 1750 µM. For the same molecule, the “IC50 for hNKCC1A, IC50 (µM) (range)” value [6] was “did not inhibit; also recorded: inactive”.
